# Assay results published in patent US5324502A, “Radiopharmaceuticals for imaging the heart” (priority 1992, dated 1994).
# Like-named read-outs stand apart in the source and are kept apart here.
# How the values were obtained:
# [1] = PET imaging of the heart with the 68Ga complex; conditions: dog, 20 mCi bolus i.v.
# Description: The dog was placed in a plexiglass holder and positioned within the PET VI camera, a positron emission tomograph that permits simultaneous acquisition of seven transverse tomographic slices with a slice-to-slice separation of 1.44 cm, a slice thickness of 1.39 cm, and a reconstructed resolution of 12.0 mm (full width at half maximum). A transmission scan, necessary for attenuation correction, was obtained using an external ring of ^68 Ge/^68 Ga. A ^15 O-myocardial perfusion image was then obtained for reference employing ^15 O-water and ^15 O-carbon monoxide in a standard PET protocol. After decay of the ^15 O activity to background levels, the ^68 Ga-bis(4,6-dimethoxysalicylaldimino)-N,N'-bis(aminopropyl) ethylene-diamine radiopharmaceutical (20 mCi) was administered to the dog as a bolus intravenous injection. Dynamic PET data was collected for ten 1 minute frames commencing at the time of ^68 Ga injection, followed by eight consecutive 10 minute static images. PET images of the chest were reconstructed from each of the ten one minute frames and each of the eight 10 minute frames. […] Regions-of-interest were defined in the ^68 Ga images allowing quantitative determination of regional myocardial tissue concentrations of tracer.
# [2] = rat
# Description: The gallium-67 complexes are prepared by ligand exchange from gallium-67 chloride, employing the tris(acetylacetonato)gallium(III) complex as an intermediate. The Ga-67 acetylacetonate in ethanol is reacted with the chelating ligand or ligand precursor at elevated temperature to form rapidly the desired gallium radiopharmaceutical. […] The biodistribution of several radiopharmaceuticals was determined in rats following intravenous injection using techniques previously described (M. A. Green, Nuclear Medicine and Biology 14:59-61, 1987; E. John and M. A. Green, J. Medicinal Chemistry, 33:1764-1770, 1990).
# Under ether anesthesia, 1 to 3 μCi (0.1-0.2 mL) of no-carrier-added Ga-67 compound was administered by bolus injection into the femoral vein of male Sprague-Dawley rats. The ether anesthetized rats were sacrificed by decapitation at given time intervals post-injection, organs of interest were removed, weighed, and the gallium-67 activity counted. The biodistribution was calculated as a percentage of the injected dose per gram of tissue and percentage of injected dose per organ for each sample.
# [3] = Octanol/water partition coefficient of radiolabeled gallium complexes; assay type: physicochemical
# Description: Octanol/water partition coefficients were measured by vortex mixing 1 mL of 1-octanol and 1 mL of isotonic Tris buffer (pH 7.0) with a 1-5 μL sample of the radiolabeled gallium complex. Following centrifugation at >1200 g for 5 minutes, the octanol and aqueous phases were sampled and counted in an automatic well counter.
compound,measurement,setting,value
"COc1cc([O-])c(C=NCCCNCCNCCCN=Cc2c([O-])cc(OC)cc2OC)c(OC)c1.[68Ga+3] [^68 Ga-bis(4,6-dimethoxysalicylaldimino)-N,N'-bis(aminopropyl)ethylenediamine]",clearance of myocardial ^68 Ga radioactivity,[1]; 90 minute imaging period,No clearance of myocardial ^68 Ga radioactivity was observed
same,delineation of the heart in ^68 Ga PET images,[1]; beyond 20 minutes post-injection,the heart was clearly delineated in the ^68 Ga-images with good heart-to-blood and heart-to-lung contrast
"COc1ccc([O-])c(C=NCCCNCCNCCCN=Cc2cc(OC)ccc2[O-])c1.[67Ga+3] [(5-MeOSal)2 BAPEN, ^67 GaL^+ L = [bis(5-methoxysalicylaldimino)-N,N'-bis(3-aminopropyl)ethylenediamine]]","% Injected Dose per Gram Tissue, Brain","[2]; in vivo, iv",0.00 ± 0.00
same,"% injected dose in heart, 1 min","[2]; in vivo, iv",0.34 ± 0.03 % injected dose
same,"% injected dose in heart, 2 h","[2]; in vivo, iv",0.23 ± 0.03 % injected dose
same,"% Injected Dose per Gram Tissue, Blood","[2]; in vivo, iv, 1 min",0.52 ± 0.08
same,"% Injected Dose per Gram Tissue, Brain","[2]; in vivo, iv, 1 min",0.02 ± 0.01
same,"% Injected Dose per Gram Tissue, Heart","[2]; in vivo, iv, 1 min",0.46 ± 0.03
same,"% Injected Dose per Gram Tissue, Kidney (one)","[2]; in vivo, iv, 1 min",9.31 ± 0.32
same,"% Injected Dose per Gram Tissue, Liver","[2]; in vivo, iv, 1 min",3.01 ± 0.51
same,"% Injected Dose per Gram Tissue, Lungs","[2]; in vivo, iv, 1 min",0.55 ± 0.14
same,"% Injected Dose per Gram Tissue, Spleen","[2]; in vivo, iv, 1 min",0.25 ± 0.02
same,Heart/Blood,"[2]; in vivo, iv, 1 min",0.89 ± 0.12
same,"% Injected Dose per Gram Tissue, Blood","[2]; in vivo, iv, 2 h",0.08 ± 0.01
same,"% Injected Dose per Gram Tissue, Heart","[2]; in vivo, iv, 2 h",0.33 ± 0.03
same,"% Injected Dose per Gram Tissue, Kidney (one)","[2]; in vivo, iv, 2 h",1.57 ± 0.13
same,"% Injected Dose per Gram Tissue, Liver","[2]; in vivo, iv, 2 h",0.78 ± 0.01
same,"% Injected Dose per Gram Tissue, Lungs","[2]; in vivo, iv, 2 h",0.16 ± 0.02
same,"% Injected Dose per Gram Tissue, Spleen","[2]; in vivo, iv, 2 h",0.07 ± 0.01
same,Heart/Blood,"[2]; in vivo, iv, 2 h",4.33 ± 0.28
same,"% Injected Dose per Gram Tissue, Blood","[2]; in vivo, iv, […]",0.15 ± 0.04
same,"% Injected Dose per Gram Tissue, Heart","[2]; in vivo, iv, […]",0.36 ± 0.01
same,"% Injected Dose per Gram Tissue, Kidney (one)","[2]; in vivo, iv, […]",4.65 ± 1.29
same,"% Injected Dose per Gram Tissue, Liver","[2]; in vivo, iv, […]",2.09 ± 0.78
same,"% Injected Dose per Gram Tissue, Lungs","[2]; in vivo, iv, […]",0.22 ± 0.22
same,"% Injected Dose per Gram Tissue, Spleen","[2]; in vivo, iv, […]",0.09 ± 0.01
same,Heart/Blood,"[2]; in vivo, iv, […]",2.61 ± 0.55
same,log P,"[3]; octanol/tris buffer, pH 7",0.53
"COc1cc([O-])c(C=NCCNCCNCCN=Cc2c([O-])cc(OC)cc2OC)c(OC)c1.[67Ga+3] [(4,6-MeO2 Sal)2 TETA, ^67 GaL^+ L = [bis(4,6-dimethoxysalicylaldimino)-N,N'-triethylene-tetraamine]]","% Injected Dose per Gram Tissue, Blood","[2]; i.v., 1 min",1.90 ± 0.56 % Injected Dose per Gram Tissu
same,"% Injected Dose per Gram Tissue, Brain","[2]; i.v., 1 min",0.05 ± 0.01 % Injected Dose per Gram Tissu
same,"% Injected Dose per Gram Tissue, Heart","[2]; i.v., 1 min",0.76 ± 0.04 % Injected Dose per Gram Tissu
same,"% Injected Dose per Gram Tissue, Kidney (one)","[2]; i.v., 1 min",4.36 ± 0.27 % Injected Dose per Gram Tissu
same,"% Injected Dose per Gram Tissue, Liver","[2]; i.v., 1 min",1.88 ± 0.15 % Injected Dose per Gram Tissu
same,"% Injected Dose per Gram Tissue, Lungs","[2]; i.v., 1 min",0.97 ± 0.03 % Injected Dose per Gram Tissu
same,"% Injected Dose per Gram Tissue, Spleen","[2]; i.v., 1 min",0.35 ± 0.02 % Injected Dose per Gram Tissu
same,"% Injected Dose per Organ, Blood","[2]; i.v., 1 min",19.26 ± 2.97 % Injected Dose per Organ
same,"% Injected Dose per Organ, Brain","[2]; i.v., 1 min",0.07 ± 0.01 % Injected Dose per Organ
same,"% Injected Dose per Organ, Heart","[2]; i.v., 1 min",0.55 ± 0.04 % Injected Dose per Organ
same,"% Injected Dose per Organ, Kidney (one)","[2]; i.v., 1 min",3.83 ± 0.31 % Injected Dose per Organ
same,"% Injected Dose per Organ, Liver","[2]; i.v., 1 min",16.90 ± 1.70 % Injected Dose per Organ
same,"% Injected Dose per Organ, Lungs","[2]; i.v., 1 min",1.17 ± 0.23 % Injected Dose per Organ
same,"% Injected Dose per Organ, Spleen","[2]; i.v., 1 min",0.22 ± 0.01 % Injected Dose per Organ
same,"% injected dose in heart, 1 min","[2]; i.v., 1 min, preliminary studies",0.55 ± 0.04 % injected dose
same,"% Injected Dose per Gram Tissue, Blood","[2]; i.v., 15 min",0.71 ± 0.08 % Injected Dose per Gram Tissu
same,"% Injected Dose per Gram Tissue, Brain","[2]; i.v., 15 min",0.03 ± 0.01 % Injected Dose per Gram Tissu
same,"% Injected Dose per Gram Tissue, Heart","[2]; i.v., 15 min",0.53 ± 0.06 % Injected Dose per Gram Tissu
same,"% Injected Dose per Gram Tissue, Kidney (one)","[2]; i.v., 15 min",2.35 ± 0.41 % Injected Dose per Gram Tissu
same,"% Injected Dose per Gram Tissue, Liver","[2]; i.v., 15 min",2.42 ± 0.25 % Injected Dose per Gram Tissu
same,"% Injected Dose per Gram Tissue, Lungs","[2]; i.v., 15 min",0.51 ± 0.05 % Injected Dose per Gram Tissu
same,"% Injected Dose per Gram Tissue, Spleen","[2]; i.v., 15 min",0.18 ± 0.02 % Injected Dose per Gram Tissu
same,"% Injected Dose per Organ, Blood","[2]; i.v., 15 min",9.32 ± 1.38 % Injected Dose per Organ
same,"% Injected Dose per Organ, Brain","[2]; i.v., 15 min",0.04 ± 0.01 % Injected Dose per Organ
same,"% Injected Dose per Organ, Heart","[2]; i.v., 15 min",0.36 ± 0.03 % Injected Dose per Organ
same,"% Injected Dose per Organ, Kidney (one)","[2]; i.v., 15 min",1.89 ± 0.40 % Injected Dose per Organ
same,"% Injected Dose per Organ, Liver","[2]; i.v., 15 min",20.33 ± 1.11 % Injected Dose per Organ
same,"% Injected Dose per Organ, Lungs","[2]; i.v., 15 min",0.50 ± 0.05 % Injected Dose per Organ
same,"% Injected Dose per Organ, Spleen","[2]; i.v., 15 min",0.11 ± 0.02 % Injected Dose per Organ
same,"% Injected Dose per Gram Tissue, Blood","[2]; i.v., 120 min",0.03 ± 0.01 % Injected Dose per Gram Tissu
same,"% Injected Dose per Gram Tissue, Brain","[2]; i.v., 120 min",0.01 ± 0.01 % Injected Dose per Gram Tissu
same,"% Injected Dose per Gram Tissue, Heart","[2]; i.v., 120 min",0.28 ± 0.05 % Injected Dose per Gram Tissu
same,"% Injected Dose per Gram Tissue, Kidney (one)","[2]; i.v., 120 min",0.51 ± 0.10 % Injected Dose per Gram Tissu
same,"% Injected Dose per Gram Tissue, Liver","[2]; i.v., 120 min",0.83 ± 0.15 % Injected Dose per Gram Tissu
same,"% Injected Dose per Gram Tissue, Lungs","[2]; i.v., 120 min",0.08 ± 0.02 % Injected Dose per Gram Tissu
same,"% Injected Dose per Gram Tissue, Spleen","[2]; i.v., 120 min",0.06 ± 0.01 % Injected Dose per Gram Tissu
same,"% Injected Dose per Organ, Blood","[2]; i.v., 120 min",0.34 ± 0.02 % Injected Dose per Organ
same,"% Injected Dose per Organ, Brain","[2]; i.v., 120 min",0.01 ± 0.01 % Injected Dose per Organ
same,"% Injected Dose per Organ, Heart","[2]; i.v., 120 min",0.19 ± 0.03 % Injected Dose per Organ
same,"% Injected Dose per Organ, Kidney (one)","[2]; i.v., 120 min",0.42 ± 0.04 % Injected Dose per Organ
same,"% Injected Dose per Organ, Liver","[2]; i.v., 120 min",6.90 ± 1.07 % Injected Dose per Organ
same,"% Injected Dose per Organ, Lungs","[2]; i.v., 120 min",0.10 ± 0.01 % Injected Dose per Organ
same,"% Injected Dose per Organ, Spleen","[2]; i.v., 120 min",0.04 ± 0.01 % Injected Dose per Organ
same,"% injected dose in heart, 2 h","[2]; i.v., 2 h, preliminary studies",0.19 ± 0.03 % injected dose
same,Heart/Blood,"[2]; ratio, i.v., 1 min",0.53 ± 0.04
same,Heart/Liver,"[2]; ratio, i.v., 1 min",0.41 ± 0.04
same,Heart/Lungs,"[2]; ratio, i.v., 1 min",0.79 ± 0.05
same,Heart/Blood,"[2]; ratio, i.v., 15 min",0.74 ± 0.03
same,Heart/Liver,"[2]; ratio, i.v., 15 min",0.22 ± 0.01
same,Heart/Lungs,"[2]; ratio, i.v., 15 min",1.03 ± 0.20
same,Heart/Blood,"[2]; ratio, i.v., 120 min",10.29 ± 2.64
same,Heart/Liver,"[2]; ratio, i.v., 120 min",0.34 ± 0.05
same,Heart/Lungs,"[2]; ratio, i.v., 120 min",3.49 ± 0.37
same,log P,[3]; 1-octanol / isotonic Tris buffer pH 7.0,0.24
